According to US8673947B2, “Enhanced migraine treatments based on ghrelin mimetics” (Helsinn Therapeutics (U.S.), Inc., priority 2009, dated 2014):
Read-outs that look alike come from different tables or passages of the source.

Legend:
[1] = Pharmacokinetic two period crossover study of oral sumatriptan with or without anamorelin hydrochloride; assay type: in vivo; conditions: both sexes, human, plasma, 25 mg/dose
Protocol: The study was a two period crossover study in 22 healthy, normal men and women ages 18-45 years, conducted in open label format. […] Subjects were fasted overnight with a seven day wash out period between periods. […] All samples were analyzed using a validated bioanalytical method (LC-MS-MS).

[2] = Imitrex tablets, cited from earlier work

AUC(0-t) ([1]; plasma sumatriptan, sumatriptan succinate 25 mg oral tablet, alone or with anamorelin HCl 100 mg oral, fasted healthy subjects, N = 22, read-out: AUC 0-30, Mean): 2.53 ng·h/mL
AUC(0-t) ([1]; plasma sumatriptan, sumatriptan succinate 25 mg oral tablet, alone or with anamorelin HCl 100 mg oral, fasted healthy subjects, N = 22, read-out: AUC 0-30, Median): 2.56 ng·h/mL
Cmax ([1]; plasma sumatriptan, sumatriptan succinate 25 mg oral tablet, alone or with anamorelin HCl 100 mg oral, fasted healthy subjects, N = 22, read-out: Cmax, Mean): 20.3 ng/mL
Cmax ([1]; plasma sumatriptan, sumatriptan succinate 25 mg oral tablet, alone or with anamorelin HCl 100 mg oral, fasted healthy subjects, N = 22, read-out: Cmax, Median): 20.4 ng/mL
Tmax ([1]; plasma sumatriptan, sumatriptan succinate 25 mg oral tablet, alone or with anamorelin HCl 100 mg oral, fasted healthy subjects, N = 22, read-out: Tmax, Mean (converted)): 1.12 h
Tmax ([1]; plasma sumatriptan, sumatriptan succinate 25 mg oral tablet, alone or with anamorelin HCl 100 mg oral, fasted healthy subjects, N = 22, read-out: Tmax, Median (converted)): 0.883 h
AUC(0-t) ([1]; read-out: AUC last, Mean): 45.6 ng·h/mL
SMILES: CNS(=O)(=O)Cc1ccc2[nH]cc(CCN(C)C)c2c1 [Sumatriptan, 1-[3-(2-dimethylaminoethyl)-1H-indol-5-yl]-N-methyl-methanesulfonamide]
time after administration until maximum blood concentrations are reached ([2]; during a migraine attack): 2.5 h
time after administration to reach maximum concentration in the plasma (average) ([2]; healthy adults): 2.0 h
